Data taken from patent US5773646A, “Meta-substituted phenylene derivatives” (G. D. Searle & Co., priority 1997, dated 1998).
Counter-ions that a name gives are not always drawn.

Tests used:
[1] = target: T1, Human vitronectin receptor (αv β3) (Homo sapiens, UniProt P05106+P06756); assay: Vitronectin adhesion assay (solid phase receptor assay, biotinylated vitronectin competition); type: binding; conditions: inhibition of 50% of the maximum binding of biotinylated vitronectin; 1 nM labeled ligand, 2 hours, room temperature, highest concentration of test compound 1.0×10^-4 M; read-out: AvB3 IC50
T1 construct: Human vitronectin receptor(αv β3) was purified from human placenta; from tissue; host or cells: human placenta
Protocol: VITRONECTIN ADHESION ASSAY Human vitronectin receptor(αv β3) was purified from human placenta as previously described [Pytela et al., Methods in Enzymology, 144:475-489 (1987)). Human vitronectin was purified from fresh frozen plasma as previously described [Yatohgo et al., Cell Structure and Function, 13:281-292 (1988)]. Biotinylated human vitronectin was prepared by coupling NHS-biotin from Pierce Chemical Company (Rockford, Ill.) to purified vitronectin as previously described [Charo et al., J. Biol. Chem., 266(3):1415-1421 (1991)]. Assay buffer, OPD substrate tablets, and RIA grade BSA were obtained from Sigma (St. Louis, Mo.). Anti-biotin antibody was obtained from Calbiochem (La Jolla, Calif.). Linbro microtiter plates were obtained from Flow Labs (McLean, Va.). ADP reagent was obtained from Sigma (St. Louis, Mo.). Solid Phase Receptor Assays This assay was essentially the same as previously reported [Niiya et al., Blood, 70:475-483 (1987)]. The purified human vitronectin receptor (αv β3) was diluted from stock solutions to 1.0 μg/mL in Tris-buffered saline containing 1.0 mM Ca^++, Mg^++, and Mn^++, pH 7.4 (TBS^+++). The diluted receptor was immediately transferred to Linbro microtiter plates at 100 μL/well (100 ng receptor/well). The plates were sealed and incubated overnight at 4° C. to allow the receptor to bind to the wells. All remaining steps were at room temperature. The assay plates were emptied and 200 μL of 1% RIA grade BSA in TBS^+++ (TBS^+++ /BSA) were added to block exposed plastic surfaces. Following a 2 hour incubation, the assay plates were washed with TBS^+++ using a 96 well plate washer. Logarithmic serial dilution of the test compound and controls were made starting at a stock concentration of 2 mM and using 2 nM biotinylated vitronectin in TBS^+++ /BSA as the diluent. This premixing of labeled ligand with test (or control) ligand, and subsequent transfer of 50 μL aliquots to the assay plate was carried out with a CETUS Propette robot; the final concentration of the labeled ligand was 1 nM and the highest concentration of test compound was 1.0×10^-4 M. The competition occurred for two hours after which all wells were washed with a plate washer as before. Affinity purified horseradish peroxidase labeled goat antibiotin antibody was diluted 1:3000 in TBS^+++ /BSA and 125 μL were added to each well. After 30 minutes, the plates were washed and incubated with OPD/H2 O2 substrate in 100 mM/L Citrate buffer, pH 5.0. The plate was read with a microtiter plate reader at a wavelength of 450 nm and when the maximum-binding control wells reached an absorbance of about 1.0, the final A450 were recorded for analysis. The data were analyzed using a macro written for use with the EXCEL™ spreadsheet program. The mean, standard deviation, and %CV were determined for duplicate concentrations. The mean A450 values were normalized to the mean of four maximum-binding controls (no competitor added)(B-MAX). The normalized values were subjected to a four parameter curve fit algorithm [Rodbard et al., Int.

[2] = target: T2, Human fibrinogen receptor (αIIb β3) (Homo sapiens, UniProt P05106+P08514); assay: Purified IIb/IIIa receptor assay (solid phase receptor assay, biotinylated vitronectin competition); conditions: inhibition of 50% of the maximum binding of biotinylated vitronectin; 1 nM labeled ligand, 2 hours, room temperature, highest concentration of test compound 1.0×10^-4 M
T2 construct: Human fibrinogen receptor (αIIb β3) was purified from outdated platelets; from tissue; host or cells: outdated human platelets
Excerpt: PURIFIED IIb/IIIa RECEPTOR ASSAY Human fibrinogen receptor (αIIb β3) was purified from outdated platelets. (Pytela, R., Pierschbacher, […]., Suzuki, S., and […] acid adhesion receptors", Methods in Enzymology 144(1987):475-489.) Human vitronectin was purified from fresh frozen plasma as described in Yatohgo, T., Izumi, M., Kashiwagi, H., and Hayashi, M., "Novel purification of vitronectin from human plasma by heparin affinity chromatography," Cell Structure and Function 13(1988):281-292. Biotinylated human vitronectin was prepared by coupling NHS-biotin from Pierce Chemical Company (Rockford, Ill.) to purified vitronectin as previously described. (Charo, […]., Phillips, D. R., Hsu, M. A., Scarborough, R. M., "Inhibition of fibrinogen binding to GP IIb/IIIa by a GP IIIa peptide", J. Biol. Chem. 266(3)(1991):1415-1421.) Assay buffer, OPD substrate tablets, and RIA grade BSA were obtained from Sigma (St. Louis, Mo.). Anti-biotin antibody was obtained from Calbiochem (La Jolla, Calif.). Linbro microtiter plates were obtained from Flow Labs (McLean, Va.). ADP reagent was obtained from Sigma (St. Louis, Mo.). Solid Phase Receptor Assays This assay is essentially the same reported in […]., Bader, R., Byers-Ward, […]., Plow, E. F. and Ruggeri, Z. M., "Increased surface expression of the membrane glycoprotein IIb/IIIa complex induced by platelet activation: Relationships to the binding of fibrinogen and platelet aggregation", Blood 70(1987):475-483. The purified human fibrinogen receptor (αIIb β3) was diluted from stock solutions to 1.0 μg/mL in Tris-buffered saline containing 1.0 mM Ca^++, Mg^++, and Mn^++, pH 7.4 (TBS^+++). The diluted receptor was immediately transferred to Linbro microtiter plates at 100 μL/well (100 ng receptor/well). The plates were sealed and incubated overnight at 4° C. to allow the receptor to bind to the wells. All remaining steps were at room temperature. The assay plates were emptied and 200 μL of 1% RIA grade BSA in TBS^+++ (TBS^+++ /BSA) were added to block exposed plastic surfaces. Following a 2 hour incubation, the assay plates were washed with TBS^+++ using a 96 well plate washer. Logarithmic serial dilution of the test compound and controls were made starting at a stock concentration of 2 mM and using 2 nM biotinylated vitronectin in TBS^+++ /BSA as the diluent. This premixing of labeled ligand with test (or control) ligand, and subsequent transfer of 50 μL aliquots to the assay plate was carried out with a CETUS Propette robot; the final concentration of the labeled ligand was 1 nM and the highest concentration of test compound was 1.0×10^-4 M. The competition occurred for two hours after which all wells were washed with a plate washer as before. Affinity purified horseradish peroxidase labeled goat antibiotin antibody was diluted 1:3000 in TBS^+++ /BSA and 125 μL were added to each well. After 30 minutes, the plates were washed and incubated with […]/H2 O2 substrate in 100 mM/L citrate buffer, pH 5.0. The plate was read with a microtiter plate reader at a wavelength of 450 nm and when the maximum-binding control wells reached an absorbance of about 1.0, the final A450 were recorded for analysis. The data were analyzed using a macro written for use with the EXCELTM spreadsheet program. The mean, standard deviation, and %CV were determined for duplicate concentrations. The mean A450 values were normalized to the mean of four maximum-binding controls (no competitor added)(B-MAX). The normalized values were subjected to a four parameter curve fit algorithm, [Robard et al., Int.

SMILES | IC50 [1] | IC50 [2]
NC(=O)Nc1cccc(C(=O)Nc2cccc(C(CC(=O)O)c3ccccc3)c2)c1 (stereo not drawn) [Example 5, 3-[[[3-[(aminocarbonyl)amino]phenyl]carbonyl]amino]-β-phenylbenzenepropanoic acid] | 15.3 µM | 21.6 µM
NC(=O)Nc1cccc(S(=O)(=O)Nc2cccc(C(CC(=O)O)c3ccccc3)c2)c1 (stereo not drawn) [Example 8, 3-[[[3-[(aminocarbonyl)amino]phenyl]sulfonyl]amino]-β-phenylbenzenepropanoic acid] | 0.641 µM | 11.6 µM
NC(=S)Nc1cccc(S(=O)(=O)Nc2cccc(C(CC(=O)O)c3ccccc3)c2)c1 (stereo not drawn) [Example 10, 3-[[[3-[(aminothioxomethyl)amino]phenyl]sulfonyl]amino]-β-phenylbenzenepropanoic acid] | 0.144 µM | 5.54 µM
N=C(N)Nc1cccc(CNc2cccc(C(CC(=O)O)c3ccccc3)c2)c1 (stereo not drawn) [Example 11, 3-[[[3-[(aminoiminomethyl)amino]phenyl]methyl]amino]-β-phenylbenzenepropanoic acid, trifluoroacetate salt] | 0.554 µM | 2.44 µM
CCOC(=O)CCc1cccc(CNC(=O)c2cccc(C#N)c2)c1 [Example 19, ethyl 3-[[[[3-(cyano)phenyl]carbonyl]amino]methyl]benzenepropanoate, diacetate salt] | > 100 µM | 57.6 µM
CCOC(=O)CCc1cccc(CNC(=O)c2cccc(NC(N)=O)c2)c1 [Example 28, ethyl 3-[[[[3-[(aminocarbonyl)amino]phenyl]carbonyl]amino]methyl]benzenepropanoate] | > 100 µM | > 100 µM
NC(=O)Nc1cccc(C(=O)NCc2cccc(CCC(=O)O)c2)c1 [Example 29, 3-[[[[3-[(aminocarbonyl)amino]phenyl]carbonyl]amino]methyl]benzenepropanoic acid] | 9.37 µM | 32 µM
O=C(O)CCc1cccc(CNC(=O)c2cccc(NC(=O)NCc3ccccc3)c2)c1 [Example 31, 3-[[[[3-[[[(phenylmethyl)amino]carbonyl]amino]phenyl]carbonyl]amino]methyl]benzenepropanoic acid] | 3.57 µM | 5.36 µM
N=C(N)Nc1cccc(C(=O)Nc2cccc(CCC(=O)O)c2)c1 [Example 36, 3-[[[3-[(aminoiminomethyl)amino]phenyl]carbonyl]amino]benzenepropanoic acid, trifluoroacetate salt] | 13.7 µM | 72.4 µM
CCOC(=O)CC(c1ccccc1)c1cccc(CNC(=O)c2cccc(NC(=N)N)c2)c1 (stereo not drawn) [Example 37, ethyl 3-[[[[3-[(aminoiminomethyl)amino]phenyl]carbonyl]amino]methyl]-β-phenylbenzenepropanoate, trifluoroacetate salt] | 32.2 µM | 79 µM
N=C(N)Nc1cccc(C(=O)NCc2cccc(C(CC(=O)O)c3ccccc3)c2)c1 (stereo not drawn) [Example 38, 3-[[[[3-[(aminoiminomethyl)amino]phenyl]carbonyl]amino]methyl]-β-phenylbenzenepropanoic acid, trifluoroacetate salt] | 0.00895 µM | 0.364 µM
CC(CC(=O)OC(C)(C)C)c1cccc(CNC(=O)c2cccc(NC(=N)N)c2)c1 (stereo not drawn) [Example 39, 1,1-dimethylethyl 3-[[[[3-[(aminoiminomethyl)amino]phenyl]carbonyl]amino]methyl]-β-methyl)benzenepropanoate, trifluoroacetate salt] | 8.56 µM | 62.4 µM

Now from value to molecule:

IC50 [1] | IC50 [2] | SMILES
0.163 µM | 11.8 µM | O=C(O)CC(c1ccccc1)c1cccc(NS(=O)(=O)c2cccc(NC(=O)NCc3ccccc3)c2)c1 (stereo not drawn) [Example 13, 3-[[[3-[[[(phenylmethyl)amino]carbonyl]amino]phenyl]sulfonyl]amino]-β-phenylbenzenepropanoic acid, monohydrate]
0.0404 µM | 1.36 µM | CC(C)(C)OC(=O)CC(c1ccccc1)c1cccc(NS(=O)(=O)c2cccc(NC(N)=NC#N)c2)c1 (stereo not drawn) [Example 15]
> 10 µM | 4.35 µM | N=C(N)c1cccc(C(=O)NCc2cccc(CCC(=O)O)c2)c1 [Example 23, 3-[[[[3-(aminoiminomethyl)phenyl]carbonyl]amino]methyl]benzenepropanoic acid, trifluoroacetate salt]
> 100 µM | > 100 µM | CCOC(=O)CCc1cccc(CNC(=O)c2cccc(NC(=O)NCc3ccccc3)c2)c1 [Example 30, ethyl 3-[[[[3-[[[(phenylmethyl)amino]carbonyl]amino]phenyl]carbonyl]amino]methyl]benzenepropanoate]
2.93 µM | 66.1 µM | CCOC(=O)CCc1cccc(CNC(=O)c2cccc(NC(=N)N)c2)c1 [Example 34, ethyl 3-[[[[3-[(aminoiminomethyl)amino]phenyl]carbonyl]amino]methyl]benzenepropanoate, trifluoroacetate salt]
0.183 µM | 6.08 µM | N=C(N)Nc1cccc(C(=O)NCc2cccc(CCC(=O)O)c2)c1 [Example 35, 3-[[[[3-[(aminoiminomethyl)amino]phenyl]carbonyl]amino]methyl]benzenepropanoic acid, trifluoroacetate salt]
